This is an account of results in patent US9884063B2, “Amido-substituted azole compounds” (Bayer Pharma Aktiengesellschaft, priority 2014, dated 2018).

Bounds are passed on as bounds.

The target in test [1] is T1, TNKS1 (Homo sapiens, UniProt O95271).
T1 sequence (O95271 1-1327): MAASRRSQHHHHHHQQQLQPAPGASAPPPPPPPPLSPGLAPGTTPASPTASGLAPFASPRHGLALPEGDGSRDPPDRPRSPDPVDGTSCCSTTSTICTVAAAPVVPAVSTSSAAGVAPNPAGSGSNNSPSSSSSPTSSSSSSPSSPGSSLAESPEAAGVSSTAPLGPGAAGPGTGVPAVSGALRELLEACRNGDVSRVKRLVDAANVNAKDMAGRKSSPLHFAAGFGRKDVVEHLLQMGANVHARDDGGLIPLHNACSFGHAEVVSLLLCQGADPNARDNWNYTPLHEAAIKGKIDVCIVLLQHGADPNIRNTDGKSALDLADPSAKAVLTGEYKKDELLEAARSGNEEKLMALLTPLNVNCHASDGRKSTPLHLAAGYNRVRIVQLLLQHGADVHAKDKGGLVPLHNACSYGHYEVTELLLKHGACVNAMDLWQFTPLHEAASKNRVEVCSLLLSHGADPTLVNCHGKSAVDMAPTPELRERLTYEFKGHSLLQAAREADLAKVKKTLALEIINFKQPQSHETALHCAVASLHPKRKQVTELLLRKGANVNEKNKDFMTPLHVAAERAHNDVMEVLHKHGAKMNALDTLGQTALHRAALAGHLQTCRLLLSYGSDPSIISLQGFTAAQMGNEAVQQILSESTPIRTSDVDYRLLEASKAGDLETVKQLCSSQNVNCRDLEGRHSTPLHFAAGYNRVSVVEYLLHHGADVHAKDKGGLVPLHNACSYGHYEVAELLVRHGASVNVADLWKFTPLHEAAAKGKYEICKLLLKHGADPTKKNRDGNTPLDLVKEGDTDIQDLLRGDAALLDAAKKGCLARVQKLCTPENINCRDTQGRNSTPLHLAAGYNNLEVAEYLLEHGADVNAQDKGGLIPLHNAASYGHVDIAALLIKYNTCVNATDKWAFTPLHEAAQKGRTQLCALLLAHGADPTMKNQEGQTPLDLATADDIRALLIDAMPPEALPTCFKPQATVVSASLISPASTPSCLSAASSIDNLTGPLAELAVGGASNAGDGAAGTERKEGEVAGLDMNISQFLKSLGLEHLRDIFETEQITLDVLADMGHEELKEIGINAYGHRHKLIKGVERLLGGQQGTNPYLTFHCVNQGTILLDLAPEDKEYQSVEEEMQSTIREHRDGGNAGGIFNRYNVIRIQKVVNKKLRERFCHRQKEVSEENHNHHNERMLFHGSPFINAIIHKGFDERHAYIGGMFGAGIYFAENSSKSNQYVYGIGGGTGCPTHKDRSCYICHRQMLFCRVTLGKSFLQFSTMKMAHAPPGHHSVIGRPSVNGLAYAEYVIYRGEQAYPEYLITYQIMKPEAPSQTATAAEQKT
The test is described as follows: Modified TNKS1 Assay 2 (auto-parsylation, [3H]-NAD+ SPA). It counts as biochemical. The conditions noted are these: 6 nM TNKS1, 96 well.

The subject of test [2] is wildtype Wnt signaling cascade. In words: HEK293 TOP Assay (Super TopFlash luciferase reporter, Wnt-3a stimulated). It counts as cell-based. To be noted: Homo sapiens, HEK293, 16 h, HEK293 TOP reporter cell line, Wnt-3a at EC50, 16 hours incubation, compound dilution series 50 μM to 15 nM. An outline of the steps: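 HEK293 cells stably carrying Super TopFlash (TOP) or FOP reporter, stimulated with recombinant human Wnt-3a (2500–5 ng/ml, two-fold steps). Both lines incubated in parallel with compound from 50 μM to 15 nM (3.16-fold) in CAFTY buffer pH 7.4 with 2 mM Ca2+ and 0.01% BSA; selectivity judged TOP vs FOP.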
In general terms: Reporter assays use an easily measured gene product as a stand-in for the process of interest.

For the molecule `O=C(Nc1ccc(NC(=O)c2[nH]cnc2C(=O)NCCC2CCCC2)cc1)c1cc(F)c(F)cc1Cl` [Example 48, N^5-{4-[(2-chloro-4,5-difluorobenzoyl)amino]phenyl}-N^4-(2-cyclopentylethyl)-1H-imidazole-4,5-dicarboxamide], the figures for the IC50 in test [1] and in test [2] were over 10000 nM and 2650 nM, respectively.

`O=C(Nc1ccc(NC(=O)c2nc[nH]c2C(=O)N[C@H]2CCNC2)cc1)c1ccc(F)cc1Cl` [Example 281, N^4-{4-[(2-chloro-4-fluorobenzoyl)amino]phenyl}-N^5-[(3S)-pyrrolidin-3-yl]-1H-imidazole-4,5-dicarboxamide]: the IC50 in test [1] came to 60 nM; in test [2] it was 1200 nM.

Regarding `O=C(Nc1ccc(NC(=O)c2nc[nH]c2C(=O)NCCN2CCC(F)(F)C2)cc1)c1ccc(F)cc1Cl` [Example 279, N^4-{4-[(2-chloro-4-fluorobenzoyl)amino]phenyl}-N^5-[2-(3,3-difluoropyrrolidin-1-yl)ethyl]-1H-imidazole-4,5-dicarboxamide], the IC50 in test [1] was found to be 20 nM; in test [2], 910 nM.

Turning to `CN1CCN(CC(C)(C)CNC(=O)c2nc[nH]c2C(=O)Nc2ccc(NC(=O)c3ccc(F)cc3Cl)cc2)CC1` [Example 415, N^5-{4-[(2-chloro-4-fluorobenzoyl)amino]phenyl}-N^4-[2,2-dimethyl-3-(4-methylpiperazin-1-yl)propyl]-1H-imidazole-4,5-dicarboxamide], the IC50 in test [1] stood at 70 nM; in test [2], 560 nM.

As to `O=C(Nc1ccc(NC(=O)c2[nH]cnc2C(=O)N2CC3(COC3)C2)cc1)c1cc(F)c(F)cc1Cl` [Example 52, N-{4-[(2-chloro-4,5-difluorobenzoyl)amino]phenyl}-4-(2-oxa-6-azaspiro[3.3]hept-6-ylcarbonyl)-1H-imidazole-5-carboxamide], the IC50 in test [1] stood at 30 nM; in test [2], 610 nM.

Take `CNC(=O)c1nc[nH]c1C(=O)Nc1ccc(NC(=O)c2ccc(F)c(Cl)c2)cc1` [Example 340, N^5-{4-[(3-chloro-4-fluorobenzoyl)amino]phenyl}-N^4-methyl-1H-imidazole-4,5-dicarboxamide]: the IC50 is over 10000 nM in test [1] and 3850 nM in test [2].

As for `CNC(=O)c1nc[nH]c1C(=O)Nc1ccc(NC(=O)c2cc(C(F)(F)F)ccc2Cl)cc1` [Example 352, N^5-(4-{[2-chloro-5-(trifluoromethyl)benzoyl]amino}phenyl)-N^4-methyl-1H-imidazole-4,5-dicarboxamide], the IC50 is 580 nM in test [1] and 710 nM in test [2].

Consider `O=C(Nc1ccc(NC(=O)c2nc[nH]c2C(=O)NCC2CCOCC2)cc1)c1ccc(F)cc1Cl` [Example 397, N^5-{4-[(2-chloro-4-fluorobenzoyl)amino]phenyl}-N^4-(tetrahydro-2H-pyran-4-ylmethyl)-1H-imidazole-4,5-dicarboxamide], for which the results for the IC50 in test [1] and in test [2] were 240 nM and 460 nM, respectively.

Regarding `CNC(=O)c1nc[nH]c1C(=O)Nc1ccc(NC(=O)c2cc(F)c(F)cc2C)cc1` [Example 377, N^5-{4-[(4,5-difluoro-2-methylbenzoyl)amino]phenyl}-N^4-methyl-1H-imidazole-4,5-dicarboxamide], the values for the 50% inhibitory concentration (IC50) in test [1] and in test [2] were 470 nM and 950 nM, respectively.

As for `CC(CN1CCOCC1)NC(=O)c1[nH]cnc1C(=O)Nc1ccc(NC(=O)c2ccc(F)cc2)cc1` (stereo not shown) [Example 294, N^4-{4-[(4-fluorobenzoyl)amino]phenyl}-N^5-[1-(morpholin-4-yl)propan-2-yl]-1H-imidazole-4,5-dicarboxamide], the IC50 in test [1] is 210 nM; in test [2] it was 1550 nM.

For the molecule `CNC(=O)c1nc[nH]c1C(=O)Nc1ccc(NC(=O)c2ccc(C#N)cc2)cc1` [Example 322, N^5-{4-[(4-cyanobenzoyl)amino]phenyl}-N^4-methyl-1H-imidazole-4,5-dicarboxamide], the concentration for half-maximal inhibition (IC50) came to 1000 nM in test [1] and 2300 nM in test [2].

On to `CCN(CC)CCCCNC(=O)c1nc[nH]c1C(=O)Nc1ccc(NC(=O)c2ccc(F)cc2Cl)cc1` [Example 393, N^5-{4-[(2-chloro-4-fluorobenzoyl)amino]phenyl}-N^4-[4-(diethylamino)butyl]-1H-imidazole-4,5-dicarboxamide], for which the IC50 in test [1] is 300 nM; in test [2], 880 nM.

As to `O=C(Nc1ccc(NC(=O)c2nc[nH]c2C(=O)NCCN2CCCCC2)cc1)c1ccccc1Cl` [Example 381, N^4-{4-[(2-chlorobenzoyl)amino]phenyl}-N^5-[2-(piperidin-1-yl)ethyl]-1H-imidazole-4,5-dicarboxamide], the IC50 in test [1] came out at 20 nM; in test [2], 80 nM.

With `CNC(=O)c1nc[nH]c1C(=O)Nc1ccc(NC(=O)c2cc(Br)ccc2Cl)cc1` [Example 313, N^5-{4-[(5-bromo-2-chlorobenzoyl)amino]phenyl}-N^4-methyl-1H-imidazole-4,5-dicarboxamide], the half-maximal inhibitory concentration (IC50) amounted to 420 nM in test [1] and 410 nM in test [2].

On to `O=C(Nc1ccc(NC(=O)c2[nH]cnc2C(=O)NC2CC2)cc1)c1cc(F)c(F)cc1Cl` [Example 51, N^5-{4-[(2-chloro-4,5-difluorobenzoyl)amino]phenyl}-N^4-cyclopropyl-1H-imidazole-4,5-dicarboxamide], for which the half-maximal inhibitory concentration (IC50) in test [1] is 20 nM; in test [2], 140 nM.

As to `CNC(=O)c1nc[nH]c1C(=O)Nc1ccc(NC(=O)c2c(C)cccc2Cl)cc1` [Example 343, N^5-{4-[(2-chloro-6-methylbenzoyl)amino]phenyl}-N^4-methyl-1H-imidazole-4,5-dicarboxamide], the IC50 came out at 2000 nM in test [1] and 1450 nM in test [2].

For `Cc1nc(C(=O)Nc2ccc(NC(=O)c3ccc(F)cc3Cl)cc2)c(C(=O)NCCN(C)C)[nH]1` [Example 66, N^4-{4-[(2-chloro-4-fluorobenzoyl)amino]phenyl}-N^5-[2-(dimethylamino)ethyl]-2-methyl-1H-imidazole-4,5-dicarboxamide], the IC50 in test [1] came out at 20 nM; in test [2] it was 310 nM.

Regarding `CNC(=O)c1nc[nH]c1C(=O)Nc1ccc(NC(=O)c2cc(C)ccn2)cc1` [Example 363, N^4-methyl-N^5-(4-{[(4-methylpyridin-2-yl)carbonyl]amino}phenyl)-1H-imidazole-4,5-dicarboxamide], the IC50 in test [1] was over 10000 nM; in test [2] it was 50000 nM.

Take `O=C(Nc1ccc(NC(=O)c2[nH]cnc2C(=O)NCCc2ccccc2)cc1)c1ccc(F)cc1Cl` [Example 384, N^5-{4-[(2-chloro-4-fluorobenzoyl)amino]phenyl}-N^4-(2-phenylethyl)-1H-imidazole-4,5-dicarboxamide]: the figures for the 50% inhibitory concentration (IC50) in test [1] and in test [2] were 1500 nM and 1900 nM, respectively.

As for `O=C(Nc1ccc(NC(=O)c2[nH]cnc2C(=O)NCCc2cccnc2)cc1)c1ccc(F)cc1Cl` [Example 405, N^5-{4-[(2-chloro-4-fluorobenzoyl)amino]phenyl}-N^4-[2-(pyridin-3-yl)ethyl]-1H-imidazole-4,5-dicarboxamide], the concentration for half-maximal inhibition (IC50) in test [1] is 100 nM; in test [2] it was 710 nM.

As for `CNC(=O)c1nc[nH]c1C(=O)Nc1ccc(NC(=O)c2cc(F)ccc2OC)cc1` [Example 364, N^5-{4-[(5-fluoro-2-methoxybenzoyl)amino]phenyl}-N^4-methyl-1H-imidazole-4,5-dicarboxamide], the IC50 in test [1] is 6100 nM; in test [2], 50000 nM.

For `O=C(Nc1ccc(NC(=O)c2[nH]cnc2C(=O)NCCN2CCCCC2)cc1F)c1ccc(F)cc1` [Example 78, N^5-{3-fluoro-4-[(4-fluorobenzoyl)amino]phenyl}-N^4-[2-(piperidin-1-yl)ethyl]-1H-imidazole-4,5-dicarboxamide], the figures for the 50% inhibitory concentration (IC50) in test [1] and in test [2] were over 10000 nM and 280 nM, respectively.

Turning to `CNC(=O)c1nc[nH]c1C(=O)Nc1ccc(NC(=O)c2ccc(F)cc2I)cc1` [Example 61, N^5-{4-[(4-fluoro-2-iodobenzoyl)amino]phenyl}-N^4-methyl-1H-imidazole-4,5-dicarboxamide], the half-inhibitory concentration (IC50) in test [1] was determined as 30 nM; in test [2], 100 nM.

One may read the IC50 as the point on the concentration scale where inhibition reaches its midpoint.
